Results published in US20220227737A1, “NOVEL OXALYL PIPERAZINES ACTIVE AGAINST THE HEPATITIS B VIRUS (HBV)” (AiCuris GmbH & Co. KG, priority 2019, published 2022).

Assays:
[1] = biological target: T1, C-terminal truncated core protein (HBV core dimer, BODIPY-FL labelled) (UniProt P03146); experiment: Biochemical capsid assembly assay (fluorescence quenching)
T1 construct: fused on or other part: One added cysteine at position 150, labelled with BODIPY-FL maleimide; The C-terminal arginine-rich domain is absent
T1 sequence (P03146 whole entry, the tested form may be a part): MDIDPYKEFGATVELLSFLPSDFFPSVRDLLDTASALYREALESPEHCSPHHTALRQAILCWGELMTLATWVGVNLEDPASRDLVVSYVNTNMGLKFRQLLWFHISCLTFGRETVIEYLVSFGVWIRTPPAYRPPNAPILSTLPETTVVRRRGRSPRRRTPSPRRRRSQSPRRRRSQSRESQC
Method: Biochemical Capsid Assembly Assay
The screening for assembly effector activity was done based on a fluorescence quenching assay published by Zlotnick et al. (2007). The C-terminal truncated core protein containing 149 amino acids of the N-terminal assembly domain fused to a unique cysteine residue at position 150 and was expressed in E. coli using the pET expression system (Merck Chemicals, Darmstadt). Purification of core dimer protein was performed using a sequence of size exclusion chromatography steps. In brief, the cell pellet from 1 L BL21 (DE3) Rosetta2 culture expressing the coding sequence of core protein cloned NdeI/XhoI into expression plasmid pET21b was treated for 1 h on ice with a native lysis buffer (Qproteome Bacterial Protein Prep Kit; Qiagen, Hilden). After a centrifugation step the supernatant was precipitated during 2 h stirring on ice with 0.23 g/ml of solid ammonium sulfate. Following further centrifugation the resulting pellet was resolved in buffer A (100 mM Tris, pH 7.5; 100 mM NaCl; 2 mM DTT) and was subsequently loaded onto a buffer A equilibrated CaptoCore 700 column (GE HealthCare, Frankfurt). The column flow through containing the assembled HBV capsid was dialyzed against buffer N (50 mM NaHCO3 pH 9.6; 5 mM DTT) before urea was added to a final concentration of 3M to dissociate the capsid into core dimers for 1.5 h on ice. The protein solution was then loaded onto a 1 L Sephacryl 5300 column. After elution with buffer N core dimer containing fractions were identified by SDS-PAGE and subsequently pooled and dialyzed against 50 mM HEPES pH 7.5; 5 mM DTT. To improve the assembly capacity of the purified core dimers a second round of assembly and disassembly starting with the addition of 5 M NaCl and including the size exclusion chromatography steps described above was performed. From the last chromatography step core dimer containing fractions were pooled and stored in aliquots at concentrations between 1.5 to 2.0 mg/ml at −80° C.
Immediately before labelling the core protein was reduced by adding freshly prepared DTT in a final concentration of 20 mM. After 40 min incubation on ice storage buffer and DTT was removed using a Sephadex G-25 column (GE HealthCare, Frankfurt) and 50 mM HEPES, pH 7.5. For labelling 1.6 mg/ml core protein was incubated at 4° C. and darkness overnight with BODIPY-FL maleimide (Invitrogen, Karlsruhe) in a final concentration of 1 mM. After labelling the free dye was removed by an additional desalting step using a Sephadex G-25 column. Labelled core dimers were stored in aliquots at 4° C. In the dimeric state the fluorescence signal of the labelled core protein is high and is quenched during the assembly of the core dimers to high molecular capsid structures. The screening assay was performed in black 384 well microtiter plates in a total assay volume of 10 μl using 50 mM HEPES pH 7.5 and 1.0 to 2.0 μM labelled core protein. Each screening compound was added in 8 different concentrations using a 0.5 log-unit serial dilution starting at a final concentration of 100 μM, 31.6 μM or 10 μM, In any case the DMSO concentration over the entire microtiter plate was 0.5%. The assembly reaction was started by the injection of NaCl to a final concentration of […] which induces the assembly process to approximately 25% of the maximal quenched signal. […] after starting the reaction the fluorescence signal was measured using a Clariostar plate reader (BMG Labtech, Ortenberg) with an excitation of 477 nm and an emission of 525 nm. As 100% and 0% assembly control HEPES buffer containing 2.5 M and 0 M NaCl was used. Experiments were performed thrice in triplicates. EC50 values were calculated by non-linear regression analysis using the Graph Pad Prism 6 software (GraphPad Software, La Jolla, USA).

[2] = Cell viability assay (AlamarBlue); conditions: human, HepAD38 cells
HBV = HBV replication assay: HBV DNA from the supernatants of HepAD38 cells; format: cell-based; conditions: Hepatitis B virus, 144 h, HBV DNA in supernatant at day 6, read-out: Cell Activity
Method: Determination of HBV DNA from the Supernatants of HepAD38 Cells
The anti-HBV activity was analysed in the stable transfected cell line HepAD38, which has been described to secrete high levels of HBV virion particles (Ladner et al., 1997). In brief, HepAD38 cells were cultured at 37° C. at 5% CO2 and 95% humidity in 200 μl maintenance medium, which was Dulbecco's modified Eagle's medium/Nutrient Mixture F-12 (Gibco, Karlsruhe), 10% fetal bovine serum (PAN Biotech Aidenbach) supplemented with 50 μg/ml penicillin/streptomycin (Gibco, Karlsruhe), 2 mM L-glutamine (PAN Biotech, Aidenbach), 400 μg/ml G418 (AppliChem, Darmstadt) and 0.3 μg/ml tetracycline. Cells were subcultured once a week in a 1:5 ratio, but were usually not passaged more than ten times. For the assay 60,000 cells were seeded in maintenance medium without any tetracycline into each well of a 96-well plate and treated with serial half-log dilutions of test compound. To minimize edge effects the outer 36 wells of the plate were not used but were filled with assay medium. On each assay plate six wells for the virus control (untreated HepAD38 cells) and six wells for the cell control (HepAD38 cells treated with 0.3 μg/ml tetracycline) were allocated, respectively. In addition, one plate set with reference inhibitors like BAY 41-4109, entecavir, and lamivudine instead of screening compounds were prepared in each experiment. In general, experiments were performed thrice in triplicates. At day 6 HBV DNA from 100 μl filtrated cell culture supernatant (AcroPrep Advance 96 Filter Plate, […] Supor membran, PALL GmbH, Dreieich) was automatically purified on the MagNa Pure LC instrument using the MagNA Pure 96 DNA and Viral NA Small Volume Kit (Roche Diagnostics, Mannheim) according to the instructions of the manufacturer. EC50 values were calculated from relative copy numbers of HBV DNA In brief, 5 μl of the 100 μl eluate containing HBV DNA were subjected to PCR LC480 Probes Master Kit (Roche) together with 1 μM antisense primer […], 0.5 μM sense primer […], 0.3 μM hybprobes […]-FL and LC640-[…]-PH (TIBMolBiol, Berlin) to a final volume of […]. The PCR was performed on the Light Cycler 480 real time system (Roche Diagnostics, Mannheim) using the following protocol: Pre-incubation for 1 min at 95° C., amplification: 40 cycles×(10 sec at 95° C., 50 sec at 60° C., 1 sec at 70° C.), cooling for 10 sec at 40° C. Viral load was quantitated against known standards using HBV plasmid DNA of pCH-9/3091 (Nassal et al., 1990, Cell 63: 1357-1363) and the LightCycler 480 SW 1.5 software (Roche Diagnostics, Mannheim) and EC50 values were calculated using non-linear regression with GraphPad Prism 6 (GraphPad Software Inc., La Jolla, USA).

| SMILES | IC50 [1] [µM] | CC50 at 6 days [2] [µM] | EC50 (HBV) [µM] |
| --- | --- | --- | --- |
| CC(O)CNC(=O)C(=O)N1CCN(C(=O)c2cc3ccccc3[nH]2)CC1 (stereo not drawn) [Example 28, 2-(4-(1H-indole-2-carbonyl)piperazin-1-yl)-N-(2-hydroxypropyl)-2-oxoacetamide] | < 5 | > 100 | < 1 |
| O=C(NCCCCO)C(=O)N1CCN(C(=O)c2cc3ccccc3[nH]2)CC1 [Example 29, 2-(4-(1H-indole-2-carbonyl)piperazin-1-yl)-N-(4-hydroxybutyl)-2-oxoacetamide] | < 5 | > 100 | 1 to 10 |
| O=C(NCC1(O)CCC1)C(=O)N1CCN(C(=O)c2cc3ccccc3[nH]2)CC1 [Example 30, 2-(4-(1H-indole-2-carbonyl)piperazin-1-yl)-N-((1-hydroxycyclobutyl)methyl)-2-oxoacetamide] | < 5 | > 100 | < 1 |
| O=C(NCC1(CO)CC1)C(=O)N1CCN(C(=O)c2cc3ccccc3[nH]2)CC1 [Example 31, 2-(4-(1H-indole-2-carbonyl)piperazin-1-yl)-N-((1-(hydroxymethyl)cyclopropyl)methyl)-2-oxoacetamide] | 5 to 10 | > 100 | < 1 |
| CC(C)(O)CNC(=O)C(=O)N1CCN(C(=O)c2cc3ccccc3[nH]2)CC1 [Example 32, 2-(4-(1H-indole-2-carbonyl)piperazin-1-yl)-N-(2-hydroxy-2-methylpropyl)-2-oxoacetamide] | < 5 | > 100 | < 1 |
| O=C(NC1CCOC1)C(=O)N1CCN(C(=O)c2cc3ccccc3[nH]2)CC1 (stereo not drawn) [Example 35, 2-(4-(1H-indole-2-carbonyl)piperazin-1-yl)-2-oxo-N-(tetrahydrofuran-3-yl)acetamide] | 5 to 10 | > 100 | < 1 |
| CC(C)(C)NC(=O)C(=O)N1CCN(C(=O)c2cc3ccccc3[nH]2)CC1 [Example 52, N-tert-butyl-2-[4-(1H-indole-2-carbonyl)piperazin-1-yl]-2-oxoacetamide] | < 5 | > 100 | < 1 |
| O=C(NCC1(O)CC1)C(=O)N1CCN(C(=O)c2cc3c(F)cc(F)cc3[nH]2)CC1 [Example 53, 2-(4-(4,6-difluoro-1H-indole-2-carbonyl)piperazin-1-yl)-N-((1-hydroxycyclopropyl)methyl)-2-oxoacetamide] | < 5 | > 100 | < 1 |
| O=C(NCCCO)C(=O)N1CCN(C(=O)c2cc3c(F)cc(F)cc3[nH]2)CC1 [Example 54, 2-(4-(4,6-difluoro-1H-indole-2-carbonyl)piperazin-1-yl)-N-(3-hydroxypropyl)-2-oxoacetamide] | < 5 | > 100 | < 1 |
| O=C(NCC1(CO)CC1)C(=O)N1CCN(C(=O)c2cc3c(F)cc(F)cc3[nH]2)CC1 [Example 55, 2-(4-(4,6-difluoro-1H-indole-2-carbonyl)piperazin-1-yl)-N-((1-(hydroxymethyl)cyclopropyl)methyl)-2-oxoacetamide] | < 5 | > 100 | < 1 |
| O=C(NCCCCCCO)C(=O)N1CCN(C(=O)c2cc3c(F)cc(F)cc3[nH]2)CC1 [Example 56, 2-(4-(4,6-difluoro-1H-indole-2-carbonyl)piperazin-1-yl)-N-(6-hydroxyhexyl)-2-oxoacetamide] | < 5 | > 100 | 1 to 10 |
| O=C(NCCCCCO)C(=O)N1CCN(C(=O)c2cc3c(F)cc(F)cc3[nH]2)CC1 [Example 57, 2-(4-(4,6-difluoro-1H-indole-2-carbonyl)piperazin-1-yl)-N-(5-hydroxypentyl)-2-oxoacetamide] | < 5 | > 100 | 1 to 10 |
| C[C@H](O)CNC(=O)C(=O)N1CCN(C(=O)c2cc3c(F)cc(F)cc3[nH]2)CC1 [Example 58, (S)-2-(4-(4,6-difluoro-1H-indole-2-carbonyl)piperazin-1-yl)-N-(2-hydroxypropyl)-2-oxoacetamide] | < 5 | > 100 | < 1 |
